Experimental data taken from ChEMBL document CHEMBL4024706 (Eur J Med Chem, 2017).

Legend:
[1] = biological target: RAC-beta serine/threonine-protein kinase (Homo sapiens) (UniProt P31751); test: Inhibition of wild-type human partial length AKT2 expressed in bacterial expression system assessed as residual activity at 1 uM by Kinomescan method relative to control
[2] = biological target: 5'-AMP-activated protein kinase catalytic subunit alpha-1 (Homo sapiens) (UniProt Q13131); test: Inhibition of wild-type human partial length AMPK alpha1 (M1 to E306 residues) expressed in bacterial expression system assessed as residual activity at 1 uM by Kinomescan method relative to control
[3] = biological target: Tyrosine-protein kinase Blk (Homo sapiens) (UniProt P51451); test: Inhibition of wild-type human partial length BLK (G211 to L503 residues) expressed in bacterial expression system assessed as residual activity at 1 uM by Kinomescan method relative to control
[4] = biological target: Protein-tyrosine kinase 6 (Homo sapiens) (UniProt Q13882); test: Inhibition of wild-type human partial length BRK (L166 to T451 residues) expressed in bacterial expression system assessed as residual activity at 1 uM by Kinomescan method relative to control
[5] = biological target: Calcium/calmodulin-dependent protein kinase kinase 2 (Homo sapiens) (UniProt Q96RR4); test: Inhibition of wild-type human partial length CAMKK2 (D65 to V471 residues) expressed in bacterial expression system assessed as residual activity at 1 uM by Kinomescan method relative to control
[6] = biological target: Cyclin-dependent kinase 4 (Homo sapiens) (UniProt P11802); test: Inhibition of wild-type human full length CDK4 (M1 to E303 residues) expressed in mammalian expression system assessed as residual activity at 1 uM by Kinomescan method relative to control
[7] = biological target: Casein kinase I isoform gamma-1 (Homo sapiens) (UniProt Q9HCP0); test: Inhibition of wild-type human partial length CSNK1G1 (T15 to S353 residues) expressed in bacterial expression system assessed as residual activity at 1 uM by Kinomescan method relative to control
[8] = biological target: Epidermal growth factor receptor (Homo sapiens, UniProt P00533); test: Inhibition of wild-type human partial length EGFR (R669 to V1011 residues) expressed in bacterial expression system assessed as residual activity at 1 uM by Kinomescan method relative to control
[9] = tested on: Epidermal growth factor receptor (Homo sapiens), P00533 [UNDEFINED MUTATION]; test: Inhibition of human partial length EGFR L747-E749del/A750P mutant expressed in bacterial expression system assessed as residual activity at 1 uM by Kinomescan method relative to control
[10] = tested on: Epidermal growth factor receptor (Homo sapiens), P00533 [L858R]; test: Inhibition of human partial length EGFR L858R mutant (R669 to V1011 residues) expressed in bacterial expression system assessed as residual activity at 1 uM by Kinomescan method relative to control
[11] = biological target: Ephrin type-A receptor 2 (Homo sapiens) (UniProt P29317); test: Inhibition of wild-type human partial length EPHA2 (T593 to V891 residues) expressed in bacterial expression system assessed as residual activity at 1 uM by Kinomescan method relative to control
[12] = biological target: Ephrin type-A receptor 6 (Homo sapiens) (UniProt Q9UF33); test: Inhibition of wild-type human partial length EPHA6 (Y700 to E1046 residues) expressed in bacterial expression system assessed as residual activity at 1 uM by Kinomescan method relative to control
[13] = biological target: Fibroblast growth factor receptor 4 (Homo sapiens) (UniProt P22455); test: Inhibition of wild-type human partial length FGFR4 (G402 to E713 residues) expressed in bacterial expression system assessed as residual activity at 1 uM by Kinomescan method relative to control
[14] = biological target: Vascular endothelial growth factor receptor 1 (Homo sapiens) (UniProt P17948); test: Inhibition of wild-type human partial length FLT1 (R781 to F1239 residues) expressed in bacterial expression system assessed as residual activity at 1 uM by Kinomescan method relative to control
[15] = tested on: Mast/stem cell growth factor receptor Kit (Homo sapiens), P10721 [D816H]; test: Inhibition of human partial length KIT D816H mutant (I571 to D952 residues) expressed in mammalian expression system assessed as residual activity at 1 uM by Kinomescan method relative to control
[16] = biological target: Tyrosine-protein kinase Lyn (Homo sapiens) (UniProt P07948); test: Inhibition of wild-type human partial length LYN (C219 to Q511 residues) expressed in bacterial expression system assessed as residual activity at 1 uM by Kinomescan method relative to control
[17] = biological target: MAP kinase-activated protein kinase 5 (Homo sapiens) (UniProt Q8IW41); test: Inhibition of wild-type human partial length MAPKAPK5 (M1 to D322 residues) expressed in mammalian expression system assessed as residual activity at 1 uM by Kinomescan method relative to control
[18] = biological target: Mitogen-activated protein kinase kinase kinase 10 (Homo sapiens) (UniProt Q02779); test: Inhibition of wild-type human partial length MLK2 (V52 to W380 residues) expressed in bacterial expression system assessed as residual activity at 1 uM by Kinomescan method relative to control
[19] = biological target: Serine/threonine-protein kinase Nek11 (Homo sapiens) (UniProt Q8NG66); test: Inhibition of wild-type human partial length NEK11 (M1 to E313 residues) expressed in mammalian expression system assessed as residual activity at 1 uM by Kinomescan method relative to control
[20] = biological target: cAMP-dependent protein kinase catalytic subunit alpha (Homo sapiens) (UniProt P17612); test: Inhibition of wild-type human partial length PKAC-alpha (G10 to F351 residues) expressed in bacterial expression system assessed as residual activity at 1 uM by Kinomescan method relative to control
[21] = biological target: Protein kinase C iota type (Homo sapiens) (UniProt P41743); test: Inhibition of wild-type human partial length PRKCI (H215 to V587 residues) expressed in mammalian expression system assessed as residual activity at 1 uM by Kinomescan method relative to control
[22] = biological target: Serine/threonine-protein kinase D3 (Homo sapiens) (UniProt O94806); test: Inhibition of wild-type human partial length PRKD3 (S543 to E863 residues) expressed in bacterial expression system assessed as residual activity at 1 uM by Kinomescan method relative to control
[23] = biological target: Serine/threonine-protein kinase Sgk3 (Homo sapiens) (UniProt Q96BR1); test: Inhibition of wild-type human partial length SGK3 (M119 to L496 residues) expressed in mammalian expression system assessed as residual activity at 1 uM by Kinomescan method relative to control
[24] = biological target: Vascular endothelial growth factor receptor 2 (Homo sapiens) (UniProt P35968); test: Inhibition of wild-type human partial length VEGFR2 (R787 to P1253 residues) expressed in mammalian expression system assessed as residual activity at 1 uM by Kinomescan method relative to control
[25] = biological target: Tyrosine-protein kinase ZAP-70 (Homo sapiens) (UniProt P43403); test: Inhibition of wild-type human partial length ZAP70 (D20 to G299 residues) expressed in mammalian expression system assessed as residual activity at 1 uM by Kinomescan method relative to control
Tyrosine-protein kinase ZAP-70 (Homo sapiens), sequence (P43403 whole entry, the tested form may be a part): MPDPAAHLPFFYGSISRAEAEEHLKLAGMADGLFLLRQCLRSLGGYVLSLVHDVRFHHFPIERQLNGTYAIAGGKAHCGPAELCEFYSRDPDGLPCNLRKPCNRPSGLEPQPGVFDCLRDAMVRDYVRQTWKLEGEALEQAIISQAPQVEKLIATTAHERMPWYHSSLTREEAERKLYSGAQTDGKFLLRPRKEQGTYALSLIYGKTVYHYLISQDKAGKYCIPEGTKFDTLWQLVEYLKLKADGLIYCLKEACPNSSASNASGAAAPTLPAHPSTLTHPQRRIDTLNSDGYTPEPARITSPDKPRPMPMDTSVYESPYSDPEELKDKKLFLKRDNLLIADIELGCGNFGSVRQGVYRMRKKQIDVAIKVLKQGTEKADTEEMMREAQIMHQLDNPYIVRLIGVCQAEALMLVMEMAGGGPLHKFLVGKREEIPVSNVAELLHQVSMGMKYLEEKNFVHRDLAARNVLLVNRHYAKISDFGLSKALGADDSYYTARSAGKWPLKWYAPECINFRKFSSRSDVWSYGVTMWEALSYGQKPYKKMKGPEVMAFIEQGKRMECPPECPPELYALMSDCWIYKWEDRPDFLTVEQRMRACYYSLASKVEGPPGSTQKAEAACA

Tyrosine-protein kinase Lyn (Homo sapiens), sequence (P07948 2-512 limits assumed): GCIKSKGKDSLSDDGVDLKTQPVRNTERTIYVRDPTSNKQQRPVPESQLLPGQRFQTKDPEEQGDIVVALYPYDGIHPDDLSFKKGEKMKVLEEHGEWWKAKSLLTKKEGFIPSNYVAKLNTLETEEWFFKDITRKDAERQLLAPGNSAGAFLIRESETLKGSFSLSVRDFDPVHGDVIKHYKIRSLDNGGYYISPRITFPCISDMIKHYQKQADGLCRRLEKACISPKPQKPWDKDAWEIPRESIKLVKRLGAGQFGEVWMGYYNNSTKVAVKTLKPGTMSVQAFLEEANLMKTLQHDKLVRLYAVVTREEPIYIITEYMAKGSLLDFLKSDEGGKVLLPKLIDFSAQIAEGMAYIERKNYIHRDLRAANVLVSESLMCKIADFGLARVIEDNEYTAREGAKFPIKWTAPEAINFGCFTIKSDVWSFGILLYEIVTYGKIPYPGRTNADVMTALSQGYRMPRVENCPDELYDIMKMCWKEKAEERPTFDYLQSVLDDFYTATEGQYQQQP
Ephrin type-A receptor 2 (Homo sapiens), sequence (P29317 whole entry, the tested form may be a part): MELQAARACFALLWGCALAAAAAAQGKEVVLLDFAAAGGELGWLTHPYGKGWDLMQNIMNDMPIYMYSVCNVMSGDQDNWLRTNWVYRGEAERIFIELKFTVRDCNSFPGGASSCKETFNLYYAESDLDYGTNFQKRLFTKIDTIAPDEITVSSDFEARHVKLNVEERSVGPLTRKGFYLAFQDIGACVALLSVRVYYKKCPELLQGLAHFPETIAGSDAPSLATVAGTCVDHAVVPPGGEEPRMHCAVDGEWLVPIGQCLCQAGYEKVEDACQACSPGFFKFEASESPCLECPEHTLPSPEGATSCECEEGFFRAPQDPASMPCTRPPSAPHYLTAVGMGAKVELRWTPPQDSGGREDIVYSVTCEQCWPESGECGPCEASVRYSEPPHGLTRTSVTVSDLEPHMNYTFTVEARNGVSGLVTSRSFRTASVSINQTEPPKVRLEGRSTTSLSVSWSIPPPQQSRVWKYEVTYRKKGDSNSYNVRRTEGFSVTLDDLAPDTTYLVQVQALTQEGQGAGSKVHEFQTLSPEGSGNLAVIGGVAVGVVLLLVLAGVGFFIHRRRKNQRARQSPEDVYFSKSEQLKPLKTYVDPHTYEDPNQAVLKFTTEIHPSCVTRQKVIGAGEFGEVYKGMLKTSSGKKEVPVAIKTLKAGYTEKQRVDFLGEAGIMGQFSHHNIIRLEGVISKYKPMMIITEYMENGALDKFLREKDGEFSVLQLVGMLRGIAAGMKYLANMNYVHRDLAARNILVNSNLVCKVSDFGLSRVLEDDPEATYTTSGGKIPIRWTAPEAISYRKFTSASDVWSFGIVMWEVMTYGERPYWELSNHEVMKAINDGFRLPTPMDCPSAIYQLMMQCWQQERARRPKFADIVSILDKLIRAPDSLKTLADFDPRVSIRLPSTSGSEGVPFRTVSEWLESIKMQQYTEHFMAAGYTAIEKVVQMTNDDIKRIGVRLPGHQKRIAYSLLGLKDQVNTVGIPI
Protein kinase C iota type (Homo sapiens), sequence (P41743 whole entry, the tested form may be a part): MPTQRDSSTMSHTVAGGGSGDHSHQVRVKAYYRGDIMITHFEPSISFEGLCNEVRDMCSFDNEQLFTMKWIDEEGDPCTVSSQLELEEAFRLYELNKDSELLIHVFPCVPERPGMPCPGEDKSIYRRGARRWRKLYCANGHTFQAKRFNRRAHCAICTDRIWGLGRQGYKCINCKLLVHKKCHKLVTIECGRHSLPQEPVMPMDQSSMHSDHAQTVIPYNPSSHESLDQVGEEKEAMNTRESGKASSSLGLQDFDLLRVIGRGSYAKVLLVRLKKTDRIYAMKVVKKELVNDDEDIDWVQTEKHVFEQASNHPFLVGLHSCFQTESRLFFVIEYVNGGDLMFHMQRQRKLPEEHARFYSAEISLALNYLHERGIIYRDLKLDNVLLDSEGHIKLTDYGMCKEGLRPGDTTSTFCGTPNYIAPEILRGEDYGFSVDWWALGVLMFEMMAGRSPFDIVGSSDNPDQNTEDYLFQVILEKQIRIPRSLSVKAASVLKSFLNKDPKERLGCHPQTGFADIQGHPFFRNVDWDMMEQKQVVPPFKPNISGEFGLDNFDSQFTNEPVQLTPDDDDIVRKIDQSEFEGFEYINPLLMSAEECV
RAC-beta serine/threonine-protein kinase (Homo sapiens), sequence (P31751 whole entry, the tested form may be a part): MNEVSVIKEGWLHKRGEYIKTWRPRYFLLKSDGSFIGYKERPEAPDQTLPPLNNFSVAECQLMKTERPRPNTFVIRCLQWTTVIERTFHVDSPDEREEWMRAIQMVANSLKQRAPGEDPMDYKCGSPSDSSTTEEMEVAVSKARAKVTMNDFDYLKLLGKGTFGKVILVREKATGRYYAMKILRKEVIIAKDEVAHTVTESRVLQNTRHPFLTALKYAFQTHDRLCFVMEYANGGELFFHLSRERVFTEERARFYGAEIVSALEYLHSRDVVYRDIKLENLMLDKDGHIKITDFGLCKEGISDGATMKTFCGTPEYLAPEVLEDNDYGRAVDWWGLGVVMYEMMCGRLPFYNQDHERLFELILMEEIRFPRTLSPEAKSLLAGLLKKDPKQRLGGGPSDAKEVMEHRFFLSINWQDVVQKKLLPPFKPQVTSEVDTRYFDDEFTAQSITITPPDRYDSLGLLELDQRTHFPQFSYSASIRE
Mast/stem cell growth factor receptor Kit (Homo sapiens), P10721 [D816H], sequence (P10721 whole entry D816H, the tested form may be a part): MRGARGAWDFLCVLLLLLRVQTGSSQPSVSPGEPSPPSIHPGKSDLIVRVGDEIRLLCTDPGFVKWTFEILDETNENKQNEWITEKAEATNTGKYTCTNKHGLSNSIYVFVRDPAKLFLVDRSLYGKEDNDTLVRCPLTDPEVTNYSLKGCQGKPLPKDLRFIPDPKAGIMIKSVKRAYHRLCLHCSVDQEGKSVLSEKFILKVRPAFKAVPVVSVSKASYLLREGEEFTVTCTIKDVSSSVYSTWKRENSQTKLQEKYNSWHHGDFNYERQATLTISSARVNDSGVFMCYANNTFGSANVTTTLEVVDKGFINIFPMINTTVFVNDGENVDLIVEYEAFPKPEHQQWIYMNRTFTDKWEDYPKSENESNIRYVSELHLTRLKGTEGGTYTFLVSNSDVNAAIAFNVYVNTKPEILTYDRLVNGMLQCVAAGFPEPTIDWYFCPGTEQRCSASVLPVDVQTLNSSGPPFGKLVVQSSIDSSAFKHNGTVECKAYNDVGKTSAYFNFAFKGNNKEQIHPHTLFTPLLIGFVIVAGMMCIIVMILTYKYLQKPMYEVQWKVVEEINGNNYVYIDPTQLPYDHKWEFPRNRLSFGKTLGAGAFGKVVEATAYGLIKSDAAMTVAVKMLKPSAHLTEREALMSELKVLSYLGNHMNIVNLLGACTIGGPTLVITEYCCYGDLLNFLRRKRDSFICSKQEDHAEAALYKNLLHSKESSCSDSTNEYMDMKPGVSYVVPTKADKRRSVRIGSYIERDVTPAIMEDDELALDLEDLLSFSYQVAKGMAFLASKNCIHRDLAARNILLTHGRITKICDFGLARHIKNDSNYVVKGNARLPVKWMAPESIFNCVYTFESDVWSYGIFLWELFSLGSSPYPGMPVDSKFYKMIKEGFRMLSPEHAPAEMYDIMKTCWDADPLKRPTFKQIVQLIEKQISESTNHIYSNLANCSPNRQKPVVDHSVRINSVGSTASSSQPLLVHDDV
Serine/threonine-protein kinase D3 (Homo sapiens), sequence (O94806 whole entry, the tested form may be a part): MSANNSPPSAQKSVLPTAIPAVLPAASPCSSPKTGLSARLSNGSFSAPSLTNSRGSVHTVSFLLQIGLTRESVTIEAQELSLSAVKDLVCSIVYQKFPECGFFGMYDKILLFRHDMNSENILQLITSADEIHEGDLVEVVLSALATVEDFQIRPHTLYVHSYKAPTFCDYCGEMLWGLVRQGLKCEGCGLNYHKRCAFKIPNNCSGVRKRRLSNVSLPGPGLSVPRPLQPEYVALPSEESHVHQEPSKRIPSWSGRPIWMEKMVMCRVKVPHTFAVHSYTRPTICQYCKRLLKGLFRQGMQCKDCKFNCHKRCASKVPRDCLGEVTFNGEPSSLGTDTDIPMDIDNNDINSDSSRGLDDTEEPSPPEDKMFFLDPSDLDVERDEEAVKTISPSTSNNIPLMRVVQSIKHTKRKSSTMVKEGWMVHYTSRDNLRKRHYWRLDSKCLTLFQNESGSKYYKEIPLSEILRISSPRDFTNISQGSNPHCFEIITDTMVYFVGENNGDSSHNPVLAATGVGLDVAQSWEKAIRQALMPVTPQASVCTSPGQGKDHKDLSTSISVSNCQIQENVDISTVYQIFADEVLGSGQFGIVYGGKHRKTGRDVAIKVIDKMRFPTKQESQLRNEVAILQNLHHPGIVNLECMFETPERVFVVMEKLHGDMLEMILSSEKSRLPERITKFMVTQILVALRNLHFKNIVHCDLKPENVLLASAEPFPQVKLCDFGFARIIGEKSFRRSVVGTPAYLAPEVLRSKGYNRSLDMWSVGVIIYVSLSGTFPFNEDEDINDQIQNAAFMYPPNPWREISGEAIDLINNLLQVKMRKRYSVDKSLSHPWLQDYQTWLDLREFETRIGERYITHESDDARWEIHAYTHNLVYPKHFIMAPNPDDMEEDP

C=CC(=O)Nc1cc(Nc2cc(-c3cccc(NC(=O)c4ccc(C(C)(C)C)cc4)c3C)cn(C)c2=O)ccc1C(=O)N1CCOCC1
Activity [1]: 95% | Activity [2]: 89% | Activity [3]: 82% | Activity [4]: 96% | Activity [5]: 100% | Activity [6]: 100% | Activity [7]: 98% | Activity [8]: 92% | Activity [9]: 94% | Activity [10]: 100% | Activity [11]: 87% | Activity [12]: 93% | Activity [13]: 84% | Activity [14]: 97% | Activity [15]: 94% | Activity [16]: 92% | Activity [17]: 100% | Activity [18]: 100% | Activity [19]: 97% | Activity [20]: 95% | Activity [21]: 100% | Activity [22]: 100% | Activity [23]: 81% | Activity [24]: 97% | Activity [25]: 100%
